These results are taken from ChEMBL document CHEMBL5500364, “Design, synthesis, and biological evaluation of some 2-(3-oxo-5,6-diphenyl-1,2,4-triazin-2(3H)-yl)-N-phenylacetamide hybrids as MTDLs for Alzheimer's disease therapy” (Eur J Med Chem, 2024).

As a reminder, the IC50 is the concentration needed to halve the response being measured. The term Papp denotes a coefficient for how fast a substance crosses the barrier. A low value points to poor permeation. As usually defined, the inhibition is the relative decrease from the control value, in per cent.

A short description of data set [1]: Neurotoxicity in human SH-SY5Y cells assessed as reduction in cell population at 80 uM incubated for 24 hrs by MTT assay. (Tetrazolium dyes change colour on reduction, which living cells bring about.)
In data set [2] the test system is Rattus norvegicus. Kind of data set: Antialzheimer activity against scopolamine-induced amnesia in male Wistar rat model assessed as restoration of memory function by measuring percentage spontaneous alteration at 5 mg/kg, po preadministered with compound for 30 mins starting from 7 th day trail followed by scopolamine administration and measured after 5 mins by Y maze test. It counts as functional, organism-based. As to conditions: time 35.0 min.

For data set [3], the system named is Rattus norvegicus. As to the kind of experiment: Antialzheimer activity against scopolamine-induced amnesia in male Wistar rat model assessed as increase in total arm enteries at 5 mg/kg, po preadministered with compound for 30 mins starting from 7 th day trail followed by scopolamine administration and measured after 5 mins by Y maze test. It counts as functional, organism-based. The conditions noted are these: time 35.0 min.

The test system of data set [4] is Rattus norvegicus. As to the kind of experiment: Reversal of amyloid beta (1 to 42 residues) induced cognitive impairment in Wistar rat assessed as reduction in escape latency time at 5 mg/kg, po pretreated with amyloid beta for 7 days followed by compound administration for 9 days and measured after 1 days by Morris water maze test. It counts as functional, organism-based. As to conditions: time 10.0 day.

For data set [5], the system named is Rattus norvegicus. Kind of data set: Reversal of amyloid beta (1 to 42 residues) induced cognitive impairment in Wistar rat assessed as increase in platform crossings at 5 mg/kg, po pretreated with amyloid beta for 7 days followed by compound administration for 9 days and measured after 1 days by Morris water maze test. In kind it is functional, organism-based. As to conditions: time 10.0 day.

In data set [6] the test system is Rattus norvegicus. As to the kind of experiment: Reversal of amyloid beta (1 to 42 residues) induced cognitive impairment in Wistar rat assessed as reduction in escape latency time at 5 mg/kg, po pretreated with amyloid beta for 7 days followed by compound administration for 9 days and measured after 5 days by Morris water maze test. In kind it is functional, organism-based. The conditions noted are these: time 14.0 day.

Data set [7] deals with Rattus norvegicus. As to the kind of experiment: Reversal of amyloid beta (1 to 42 residues) induced cognitive impairment in Wistar rat assessed as increase in platform crossings at 5 mg/kg, po pretreated with amyloid beta for 7 days followed by compound administration for 9 days and measured after 5 days by Morris water maze test. In kind it is functional, organism-based. The conditions noted are these: time 14.0 day.

The test system of data set [8] is Rattus norvegicus. Kind of data set: Reversal of amyloid beta (1 to 42 residues) induced cognitive impairment in Wistar rat assessed as reduction in focal gliosis in cerebral cortex at 5 mg/kg, po pretreated with amyloid beta for 7 days followed by compound administration for 9 days and measured after 5 days by Nissl's staining based analysis. In kind it is functional, organism-based. As to conditions: time 14.0 day.

The test system of data set [9] is Rattus norvegicus. Kind of data set: Reversal of amyloid beta (1 to 42 residues) induced cognitive impairment in Wistar rat assessed as reduction in neural dispersion at DG region in hippocampus at 5 mg/kg, po pretreated with amyloid beta for 7 days followed by compound administration for 9 days and measured after 5 days by Nissl's staining based analysis. The conditions noted are these: time 14.0 day. In kind it is functional, organism-based.

Data set [10] relates to Rattus norvegicus. As to the kind of experiment: Reversal of amyloid beta (1 to 42 residues) induced cognitive impairment in Wistar rat assessed as reduction in appearance of pyknotic neuron bodies in hippocampus at 5 mg/kg, po pretreated with amyloid beta for 7 days followed by compound administration for 9 days and measured after 5 days by Nissl's staining based analysis. In kind it is functional, organism-based. The conditions noted are these: time 14.0 day.

Data set [11] has as its system Rattus norvegicus. Kind of data set: Reversal of amyloid beta (1 to 42 residues) induced cognitive impairment in Wistar rat assessed as decrease in BACE-1 protein level at 5 mg/kg, po pretreated with amyloid beta for 7 days followed by compound administration for 9 days and measured after 5 days by Western blot analysis. The conditions noted are these: time 14.0 day. It counts as functional, organism-based. For orientation: Immunoblotting shows a protein as a band on a membrane.

The subject of data set [12] is Rattus norvegicus. As to the kind of experiment: Reversal of amyloid beta (1 to 42 residues) induced cognitive impairment in Wistar rat assessed as decrease in alpha-synuclein protein level at 5 mg/kg, po pretreated with amyloid beta for 7 days followed by compound administration for 9 days and measured after 5 days by Western blot analysis. It counts as functional, organism-based. The conditions noted are these: time 14.0 day.

Data set [13] relates to Rattus norvegicus. Kind of data set: Reversal of amyloid beta (1 to 42 residues) induced cognitive impairment in Wistar rat assessed as decrease in APP protein level at 5 mg/kg, po pretreated with amyloid beta for 7 days followed by compound administration for 9 days and measured after 5 days by Western blot analysis. It counts as functional, organism-based. As to conditions: time 14.0 day.

Data set [14] deals with Rattus norvegicus. As to the kind of experiment: Reversal of amyloid beta (1 to 42 residues) induced cognitive impairment in Wistar rat assessed as decrease in Tau protein level at 5 mg/kg, po pretreated with amyloid beta for 7 days followed by compound administration for 9 days and measured after 5 days by Western blot analysis. As to conditions: time 14.0 day. It counts as functional, organism-based.

The test system of data set [15] is Rattus norvegicus. As to the kind of experiment: Reversal of amyloid beta (1 to 42 residues) induced cognitive impairment in Wistar rat assessed as decrease in BACE-1 level in DG region of hippocampus at 5 mg/kg, po pretreated with amyloid beta for 7 days followed by compound administration for 9 days and measured after 5 days by immuno histochemical analysis. As to conditions: time 14.0 day. It counts as functional, organism-based.

Data set [16] has as its system Rattus norvegicus. Kind of data set: Reversal of amyloid beta (1 to 42 residues) induced cognitive impairment in Wistar rat assessed as decrease in BACE-1 level in CA1 region of hippocampus at 5 mg/kg, po pretreated with amyloid beta for 7 days followed by compound administration for 9 days and measured after 5 days by immuno histochemical analysis. It counts as functional, organism-based. The conditions noted are these: time 14.0 day.

The subject of data set [17] is Rattus norvegicus. As to the kind of experiment: Reversal of amyloid beta (1 to 42 residues) induced cognitive impairment in Wistar rat assessed as decrease in BACE-1 level in CA3 region of hippocampus at 5 mg/kg, po pretreated with amyloid beta for 7 days followed by compound administration for 9 days and measured after 5 days by immuno histochemical analysis. In kind it is functional, organism-based. As to conditions: time 14.0 day.

For data set [18], the system named is Rattus norvegicus. Kind of data set: Reversal of amyloid beta (1 to 42 residues) induced cognitive impairment in Wistar rat assessed as decrease in amyloid-beta level in DG region of hippocampus at 5 mg/kg, po pretreated with amyloid beta for 7 days followed by compound administration for 9 days and measured after 5 days by immuno histochemical analysis. It counts as functional, organism-based. As to conditions: time 14.0 day.

For data set [19], the system named is Rattus norvegicus. As to the kind of experiment: Reversal of amyloid beta (1 to 42 residues) induced cognitive impairment in Wistar rat assessed as decrease in amyloid-beta level in CA1 region of hippocampus at 5 mg/kg, po pretreated with amyloid beta for 7 days followed by compound administration for 9 days and measured after 5 days by immuno histochemical analysis. It counts as functional, organism-based. The conditions noted are these: time 14.0 day.

The test system of data set [20] is Rattus norvegicus. Kind of data set: Reversal of amyloid beta (1 to 42 residues) induced cognitive impairment in Wistar rat assessed as decrease in amyloid-beta level in CA3 region of hippocampus at 5 mg/kg, po pretreated with amyloid beta for 7 days followed by compound administration for 9 days and measured after 5 days by immuno histochemical analysis. It counts as functional, organism-based. The conditions noted are these: time 14.0 day.

In a further data set the target is Acetylcholinesterase (Homo sapiens, UniProt P22303). Kind of data set: Inhibition of human erythrocyte AChE using acetylthiocholine iodide as substrate preincubated for 30 mins followed by substrate addition by DTNB based Ellman's colorimetric method. In general terms: In Ellman's method for cholinesterases, released thiocholine reacts with DTNB.
A further data set addresses Cholinesterase (Homo sapiens, UniProt P06276). As to the kind of experiment: Inhibition of human BChE using butyrylthiocholine iodide as substrate preincubated for 30 mins followed by substrate addition by DTNB based Ellman's colorimetric method.
In data set [21] the target is Dual specificity tyrosine-phosphorylation-regulated kinase 1A (Homo sapiens, UniProt Q13627). As to the kind of experiment: Inhibition of Dyrk1A (unknown origin) incubated for 1 hrs in presence of [gamma-33P]-ATP by microplate scintillation counter based radiometric protein kinase assay.
The next data set has as its target Beta-secretase 1 (Homo sapiens, UniProt P56817). As to the kind of experiment: Inhibition of human BACE-1 using (7-Methoxycoumarin-4-acetyl-[Asn670, Leu671]-Amyloid beta/A4 precursor protein 770 fragments 667-676- (2, 4-dinitrophenyl) Lys-Arg-Arg amide trifluoroacetate salt as substrate incubated for 2 hrs by FRET-based analysis.
Data set [22] is described as follows: Permeability of compound in PBS at pH 7.4 incubated for 18 hrs by PAMPA-BBB assay.
Data set [23] relates to SH-SY5Y. As to the kind of experiment: Neuroprotective activity against amyloid-beta(1 to 42) induced oxidative stress in differentiated human SH-SY5Y cells assessed as increase in cell viability at 40 uM preincubated with amyloid-beta (1 to 42 ) for 24 hrs followed by compound addition and measured after 48 hrs by MTT assay relative to control. It counts as functional.

The subject of data set [24] is SH-SY5Y. Kind of data set: Neuroprotective activity against amyloid-beta(1 to 42) induced oxidative stress in differentiated human SH-SY5Y cells assessed as increase in cell viability at 40 uM preincubated with amyloid-beta (1 to 42 ) for 24 hrs followed by compound addition and measured after 72 hrs by MTT assay relative to control. In kind it is functional.
Data set [25] has as its target Amyloid-beta precursor protein (Homo sapiens) (UniProt P05067). As to the kind of experiment: Inhibition of amyloid beta (1 to 42) (unknown origin) self aggregation ar 5 to 20 uM incubated for 48 hrs by Thioflavin T fluorescence assay relative to control. As to conditions: dose 5-20 µM.
For data set [26] the target is unchanged. Kind of data set: Inhibition of human AchE-induced amyloid beta (1 to 42) (unknown origin) aggregation at 5 to 20 uM incubated for 48 hrs by Thioflavin T fluorescence assay relative to control. The conditions noted are these: dose 5-20 µM.
Data set [27] has the same target. Kind of data set: Inhibition of amyloid beta (1 to 42) (unknown origin) aggregation assessed as maximum peak height of aggregates incubated for 48 hrs by AFM analysis.
The target is the same in data set [28]. Kind of data set: Inhibition of amyloid beta (1 to 42) (unknown origin) aggregation assessed as reduction in amyloid-beta aggregates at 50 uM incubated for 48 hrs by TEM analysis.
Data set [29] has the same target. As to the kind of experiment: Inhibition of amyloid beta (1 to 42) (unknown origin) aggregation assessed as appearance of thinner aggregates at 50 uM incubated for 48 hrs by TEM imaging analysis.
Data set [30] has the same target. As to the kind of experiment: Inhibition of amyloid beta (1 to 42) (unknown origin) aggregation assessed as reduction in size of amyloid-beta aggregates measured within 48 hrs by SEM imaging analysis.

Structures are written as SMILES. Calls of active or inactive are those of the source. The calls are words filed in the database; no cut-off is given here.

Sequence of Amyloid-beta precursor protein (Homo sapiens) (P05067 whole entry): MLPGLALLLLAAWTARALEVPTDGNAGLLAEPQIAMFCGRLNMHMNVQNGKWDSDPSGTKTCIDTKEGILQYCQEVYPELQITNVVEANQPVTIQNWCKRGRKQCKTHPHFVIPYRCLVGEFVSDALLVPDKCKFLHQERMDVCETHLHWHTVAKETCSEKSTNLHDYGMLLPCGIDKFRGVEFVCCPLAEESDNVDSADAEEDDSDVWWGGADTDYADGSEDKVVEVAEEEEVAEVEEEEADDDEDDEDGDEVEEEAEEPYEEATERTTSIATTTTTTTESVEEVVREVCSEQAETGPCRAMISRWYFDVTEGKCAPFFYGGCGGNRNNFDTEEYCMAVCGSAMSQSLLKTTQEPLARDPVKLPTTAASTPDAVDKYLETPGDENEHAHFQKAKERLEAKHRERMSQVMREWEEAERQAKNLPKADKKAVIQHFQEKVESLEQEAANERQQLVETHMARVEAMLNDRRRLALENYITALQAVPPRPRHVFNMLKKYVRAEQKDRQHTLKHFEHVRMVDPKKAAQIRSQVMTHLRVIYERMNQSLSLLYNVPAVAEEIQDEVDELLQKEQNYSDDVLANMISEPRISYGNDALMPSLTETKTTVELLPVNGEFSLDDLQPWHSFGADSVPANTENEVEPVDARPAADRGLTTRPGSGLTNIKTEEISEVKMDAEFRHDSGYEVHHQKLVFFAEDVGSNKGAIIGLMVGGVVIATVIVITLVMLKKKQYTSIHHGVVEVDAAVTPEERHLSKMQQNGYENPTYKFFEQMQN
Sequence of Beta-secretase 1 (P56817 whole entry, the tested form may be a part): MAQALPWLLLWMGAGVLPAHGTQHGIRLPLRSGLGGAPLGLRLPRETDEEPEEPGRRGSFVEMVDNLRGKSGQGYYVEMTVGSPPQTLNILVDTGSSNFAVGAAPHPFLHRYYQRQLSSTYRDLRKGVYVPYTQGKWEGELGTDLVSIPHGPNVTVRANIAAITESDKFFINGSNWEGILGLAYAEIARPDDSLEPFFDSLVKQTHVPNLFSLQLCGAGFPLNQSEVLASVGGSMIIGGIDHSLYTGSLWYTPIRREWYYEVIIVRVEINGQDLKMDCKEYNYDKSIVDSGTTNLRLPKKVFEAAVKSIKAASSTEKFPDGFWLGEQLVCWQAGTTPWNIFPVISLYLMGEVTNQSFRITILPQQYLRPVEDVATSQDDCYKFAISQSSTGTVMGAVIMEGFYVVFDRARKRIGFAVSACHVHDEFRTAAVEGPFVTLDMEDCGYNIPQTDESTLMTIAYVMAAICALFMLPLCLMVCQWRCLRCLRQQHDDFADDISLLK
Sequence of Acetylcholinesterase (P22303 whole entry): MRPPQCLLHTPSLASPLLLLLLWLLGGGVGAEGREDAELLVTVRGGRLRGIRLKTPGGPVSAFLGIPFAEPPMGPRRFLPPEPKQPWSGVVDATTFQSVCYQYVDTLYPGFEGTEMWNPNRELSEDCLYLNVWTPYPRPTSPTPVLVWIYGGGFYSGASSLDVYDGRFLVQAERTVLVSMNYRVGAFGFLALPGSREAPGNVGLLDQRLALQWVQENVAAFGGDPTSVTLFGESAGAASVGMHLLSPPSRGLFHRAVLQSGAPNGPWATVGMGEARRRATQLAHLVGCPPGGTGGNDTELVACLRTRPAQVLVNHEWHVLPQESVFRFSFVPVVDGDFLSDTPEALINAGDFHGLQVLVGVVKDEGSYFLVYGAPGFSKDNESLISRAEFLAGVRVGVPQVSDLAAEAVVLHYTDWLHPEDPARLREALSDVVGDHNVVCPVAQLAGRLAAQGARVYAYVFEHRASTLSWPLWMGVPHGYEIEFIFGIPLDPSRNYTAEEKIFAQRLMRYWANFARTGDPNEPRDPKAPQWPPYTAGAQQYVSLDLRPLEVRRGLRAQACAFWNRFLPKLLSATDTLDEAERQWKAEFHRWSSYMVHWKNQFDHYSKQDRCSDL
Sequence of Cholinesterase (P06276 whole entry): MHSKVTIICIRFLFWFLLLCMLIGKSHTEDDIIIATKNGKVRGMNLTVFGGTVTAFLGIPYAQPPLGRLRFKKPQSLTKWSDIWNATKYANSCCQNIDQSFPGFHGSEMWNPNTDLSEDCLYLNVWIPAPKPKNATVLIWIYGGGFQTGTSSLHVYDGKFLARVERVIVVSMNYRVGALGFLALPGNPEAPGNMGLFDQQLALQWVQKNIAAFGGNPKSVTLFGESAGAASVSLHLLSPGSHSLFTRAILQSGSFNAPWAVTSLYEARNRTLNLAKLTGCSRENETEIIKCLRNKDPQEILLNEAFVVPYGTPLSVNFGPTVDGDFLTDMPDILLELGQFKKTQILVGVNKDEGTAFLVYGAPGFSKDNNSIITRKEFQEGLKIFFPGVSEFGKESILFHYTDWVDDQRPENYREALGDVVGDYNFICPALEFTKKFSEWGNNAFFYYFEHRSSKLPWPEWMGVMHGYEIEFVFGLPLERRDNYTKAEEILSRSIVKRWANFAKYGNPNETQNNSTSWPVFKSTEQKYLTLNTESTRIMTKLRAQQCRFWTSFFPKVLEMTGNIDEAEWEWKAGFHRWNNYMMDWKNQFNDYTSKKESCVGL

For the compound `COc1cc2c(cc1OC)C(=O)C(CC1CCN(Cc3ccccc3)CC1)C2` (stereo not given) [DONEPEZIL], the Activity result in [1] is recorded as “Non-Toxic”. For the same compound, the outcome with Rattus norvegicus [2], in the data set on Rattus norvegicus [3], in the data set on Rattus norvegicus [6], in the data set with Rattus norvegicus [7], with Rattus norvegicus [8] and with Rattus norvegicus [9] was Active. Besides, the outcome in the data set with Rattus norvegicus [10], with Rattus norvegicus [11], with Rattus norvegicus [12], in the data set with Rattus norvegicus [13], in the data set on Rattus norvegicus [14] and in the data set on Rattus norvegicus [15] was Active. For the same compound, the outcome with Rattus norvegicus [16], in the data set on Rattus norvegicus [17], with Rattus norvegicus [18], in the data set on Rattus norvegicus [19] and in the data set with Rattus norvegicus [20] was Active. Also, the outcome with Rattus norvegicus [4] and with Rattus norvegicus [5] was inactive.
As to `COc1cc(NC(=O)Cn2nc(-c3ccccc3)c(-c3ccccc3)nc2=O)cc(OC)c1OC`, the IC50 against Acetylcholinesterase was 708 nM; on Cholinesterase it was over 10000 nM; in [21], over 10000 nM; on Beta-secretase 1, 648 nM. Moreover, the Papp at 18 h in data set [22] was 5.81 ×10⁻⁶ cm/s. Also, the Activity entry in data set [1] is “Non-Toxic”; in the data set on SH-SY5Y [23] it was 71%; in the data set on SH-SY5Y [24] it was 78%. Also, the values for the inhibition in data set [25] and in data set [26] were 19.3% and 33.6%, respectively.
In [25], `COc1cc(/C=C/C(=O)CC(=O)/C=C/c2ccc(O)c(OC)c2)ccc1O` came in with an inhibition of 21.5%. For the same compound, the Activity in [27] was determined as 206 nm. Further, the inhibition entry in data set [28], in data set [29] and in data set [30] was “Active” throughout.
